In patent US5026836A, “6-sulfenamide, 6-sulfinamide and 6-sulfonamide purines, purine nucleosides, purine nucleotides, pharmaceutical compositions, and processes of making” (priority 1988, dated 1991):

Test system: L1210 cells
Assay: Life span of BDF1 mice inoculated ip with 10^6 L1210 leukemia cells
Assay type: in vivo, mouse
Details: for Activity against I.P. L1210 cells, T/C: oral 37 mg/kg
Method: As illustrative examples of use of the compounds of the invention the following examples are given. […] These standard tests utilize protocols developed under the auspices of the Developmental Therapeutics Program, Division of Cancer Treatment, National Cancer Institute, Bethesda, Md., U.S.A. Except as otherwise indicated the tests conform to these protocols and are evaluated utilizing criteria defined by the protocols.
Values below 25% are considered capable of producing effective therapy, those below 10% are considered good and those below 5% are considered very good. This expresses the percent of the cells which survived treatment based upon the original cells in the inoculum. Those tests expressed as increases in life span (% ILS) indicate the increased life span of the drug treated group compared to a control group.
As an indicator of reproducible activity, compounds of the invention and other known cancer chemotherapeutic agents were screened against L1210 lymphoid leukemia in vivo utilizing the mouse as a test species. Normal NCI protocols for this test require 10^5 seed cells of the L1210 cell line.
Cytosine Arabinoside must be given every three hours.
Mice were inoculated intraperitoneally on day 0 with a million cells of murine leukemia L1210. Drug was given qd days 1, 4 and 7. Increased life span is the mean increase in the treated group presented as a percentage of the mean life span of control mice.
Mice were inoculated intraperitoneally on day 0 with a million cells of murine leukemia L1210. Drugs were given qd days 1, 3, 5 and 7. Increased life span is presented as a percentage of the mean life span of control mice.

[1] = ip 37 mg/kg/inj, bid days 1,3,5,7
[2] = ip 62 mg/kg/inj, bid days 1,4,7
[3] = ip 104 mg/kg/inj, qd days 1,4,7
[4] = ip 173 mg/kg/inj, qd days 1,4,7

Structure (SMILES): Nc1nc([S+](N)[O-])c2ncn([C@@H]3O[C@H](CO)[C@@H](O)[C@H]3O)c2n1 (mixture of isomers) [Compound 19, 2-amino-9-β-D-ribofuranosyl-9H-purine-6-sulfinamide]
- Increased life span (37 mg/kg/inj injected, qd days 1,3,5,7): 74%
- Increased life span (62 mg/kg/inj injected, qd days 1,3,5,7): 123%
- Increased life span (104 mg/kg/inj injected, qd days 1,3,5,7): 136%
- Increased life span (173 mg/kg/inj injected, qd days 1,3,5,7): 189%
- dose at which significant activity is indicated (delivered only once on day 1, ip): about 37 mg per kg
- T/C (%) (ip 13 mg/kg, qd day 1): 106%
- T/C (%) (ip 22 mg/kg, qd day 1): 106%
- Life span (% T/C) (ip 22 mg/kg/inj, bid days 1,3,5,7): 193%
- Life span (% T/C) (ip 22 mg/kg/inj, bid days 1,4,7): 161%
- Life span (% T/C) (ip 22 mg/kg/inj, bid days 1-7): 200%
- T/C (%) (ip 37 mg/kg, qd day 1): 128%
- % ILS [1]: 79%
- Life span (% T/C) [1]: 236%
- Life span (% T/C) (ip 37 mg/kg/inj, bid days 1,4,7): 216%
- Life span (% T/C) (ip 37 mg/kg/inj, bid days 1-7): 233%
- Life span (% T/C) (ip 37 mg/kg/inj, qd days 1,3,5,7): 174%
- Increased life span (ip 37 mg/kg/inj, qd days 1,4,7): 54%
- Life span (% T/C) (ip 37 mg/kg/inj, qd days 1,4,7): 154%
- Life span (% T/C) (ip 37 mg/kg/inj, qd days 1-7): 213%
- T/C (%) (ip 62 mg/kg, bid day 1): 184%
- T/C (%) (ip 62 mg/kg, qd day 1): 135%
- T/C (%) (ip 62 mg/kg, qid day 1): 194%
- T/C (%) (ip 62 mg/kg, tid day 1): 183%
- Life span (% T/C) (ip 62 mg/kg/inj, bid days 1,3,5,7): 285%
- % ILS [2]: 88%
- Life span (% T/C) [2]: 249%
- long term survivors (ip 62 mg/kg/inj, bid days 1-7): 2
- Life span (% T/C) (ip 62 mg/kg/inj, bid days 1-7, 2 long term survivors not included): 361%
- Life span (% T/C) (ip 62 mg/kg/inj, qd days 1,3,5,7): 223%
- Increased life span (ip 62 mg/kg/inj, qd days 1,4,7): 93%
- Life span (% T/C) (ip 62 mg/kg/inj, qd days 1,4,7): 193%
- Life span (% T/C) (ip 62 mg/kg/inj, qd days 1-7): 239%
- T/C (%) (ip 104 mg/kg, qd day 1): 151%
- Life span (% T/C) (ip 104 mg/kg/inj, bid days 1,4,7, 1 toxic death not included): 311%
- Life span (% T/C) (ip 104 mg/kg/inj, qd days 1,3,5,7): 236%
- Increased life span [3]: 130%
- Life span (% T/C) [3]: 230%
- long term survivors (ip 104 mg/kg/inj, qd days 1-7): 1
- Life span (% T/C) (ip 104 mg/kg/inj, qd days 1-7, 1 long term survivor not included): 307%
- T/C (%) (ip 173 mg/kg, qd day 1): 167%
- Life span (% T/C) (ip 173 mg/kg/inj, qd days 1,3,5,7): 289%
- Increased life span [4]: 169%
- Life span (% T/C) [4]: 269%
- in vivo antitumor activity (mouse, in vivo): good in vivo activity
- oral activity (words) (oral): Oral activity is seen
- Activity against I.P. L1210 cells, T/C (bid days 1,3,5,7): 148.6%
- Activity against I.P. L1210 cells, T/C (qd days 1,4,7): 144.6%
